The values below come from patent EP0400785A2, “Ultraviolet curable phenyl and acrylamide group-containing silicone compositions” (DOW CORNING CORPORATION, priority 1989, dated 1990).

Type in all cases: physicochemical
Data set [1] in a line: Durometer hardness of cured composition (Shore scales). Conditions: in Acrylamide-polymer B; 0.25 inch thick section of cured material. An excerpt:
(§1) Compositions were made from Acrylamide-polymer B and various compounds which might be considered useful as photosensitization systems. These included P-1 = 2 hydroxy-2-methylphenylpropan-1-one (Darocur^TM 1173) P-2 = diethoxyacetophenone P-3 = (1-hydroxycyclohexyl)phenylmethanone (Irgacure^TM 184) P-4 = benzophenone P-5 = a 50/50 weight mixture of P-1 and diisopropylaminoethanol. Each of the photosensitization systems were used in an amount of one weight percent except P-5 which was used in an amount of two weight percent. The weight percentage was based on the weight of Acrylamide-blend B. Each of the compositions were cured for a defined period of time by exposure to ultraviolet radiation on the LCU described in Example 2, set for 3 seconds per pass which measured about 400 mJ/cm² using a Light Bug. The hardness of the cured composition was measured by using equipment manufactured by Instrument MFG Co. on the Shore OO durometer scale using a 0.25 inch thick section of the cured material. The durometer was determined initially, after heat aging for 20 hours at 150°C. in an oven and after 20 hours in an autoclave at 12 1°C. and 15 psi pressure.
(§2) A gel composition was prepared by mixing 98 parts of Acrylamide-blend E, 1 part of (1-hydroxycyclohexyl)phenylmethanone and 1 part of a heat stability additive. Sodium and potassium contents were determined on uncured samples of the gel composition by using flame photometry of acid ashed gel composition after removal of silica by treatment with hydrofluoric acid. The amount of sodium and potassium were each less than 2 ppm. […] The irradiation dose was determined by using an IL 390 Light Bug manufactured by International Light of (Newburyport, Mass.). […] As determined by ASTM-D150, the dielectric constant at 100 Hz was 3.0 and at 100,000 Hz was 3.0. As determined by ASTM-D150, the dissipation factor at 100 Hz was 0.006 and at 100,000 Hz was 0.002. The glass transition temperature was -113°C. and there was no melting transition temperature as determined by differential scanning calorimetry. The thermal stability was determined by placing a sample of the cured gel composition in a forced air oven at 150°C. […] The autoclave stability was determined by placing a sample of cured gel composition in an autoclave at 121°C. with a pressure of 2.1 kg/cm².
(§3) A composition was prepared by blending 67 parts of Acrylamide-polymer D, 25 parts of 1,4 -butanediol diacrylate, 3 parts of 1-hydroxy-2-methyl-1-phenylpropan-1-one, 5 parts of an adhesion additive, 100 ppm of phenothiazine and 100 ppm of the monomethyl ether of hydroquinone. […] The ionic purity was determined and there was less than 2 ppm of sodium and less than 2 ppm potassium. […]

A short description of data set [2]: Autoclave stability of cured composition at 121°C (durometer). The settings on record: in Acrylamide-polymer B; after 20 hours in an autoclave at 12 1°C and 15 psi.
From the text: as §1, §2, §3

A short description of data set [3]: Heat aging / thermal stability of cured composition in oven at 150°C (durometer). The settings on record: in Acrylamide-polymer B; after 20 hours at 150°C in an oven.
From the text: as §1, §2, §3

As to `CC(C)(O)C(=O)c1ccccc1` [P-1, 2 hydroxy-2-methylphenylpropan-1-one], the “DUROMETER INITIAL” value in data set [1] came to 45 Shore OO. Besides, in data set [2], the “DUROMETER AUTOCLAVE” value was 39 Shore OO. Also, the “DUROMETER HEAT AGED” value in data set [3] came out at 36 Shore OO.

With `CCOC(OCC)C(=O)c1ccccc1` [P-2, diethoxyacetophenone], the “DUROMETER INITIAL” value in data set [1] was determined as 42 Shore OO. For the same compound, in data set [2], the “DUROMETER AUTOCLAVE” value amounted to 47 Shore OO. Moreover, in data set [3], the “DUROMETER HEAT AGED” value came to 30 Shore OO.

As for `O=C(c1ccccc1)C1(O)CCCCC1` [P-3, (1-hydroxycyclohexyl)phenylmethanone], the “DUROMETER INITIAL” value in data set [1] turned out to be 41 Shore OO. In data set [2], the “DUROMETER AUTOCLAVE” value amounted to 40 Shore OO. Also, the “DUROMETER HEAT AGED” value in data set [3] was 42 Shore OO.

With `O=C(c1ccccc1)c1ccccc1` [P-4, benzophenone], in data set [1], the “DUROMETER INITIAL” value is reported as 44 Shore OO. Besides, the “DUROMETER AUTOCLAVE” value in data set [2] worked out at 44 Shore OO. Also, in data set [3], the “DUROMETER HEAT AGED” value is given as 43 Shore OO.
